In ChEMBL document CHEMBL1155602, “Three new scalarane sesterterpenoids from the Okinawan sponge Hyrtios erectus” (J Nat Prod, 2000) one finds IC50 data, which are given here for one molecule.

This test deals with KB. Put plainly: Antiproliferative activity against human KB cells. The class given is functional, cell-based.

In brackets after ≈: the same amount, converted by molar mass.

On to `CC1(C)CCC[C@]2(C)[C@H]3C[C@@H](O)[C@]4(C)C=C(C=O)CC[C@H]4[C@]3(C)CC[C@@H]12`, for which the IC50 is 2.82 µg/mL (≈ 7.86 µM).

For orientation: IC50 means the concentration at which inhibition is half-maximal. A low value points to higher potency.
